Biological target: T1, hTRPV1 (Homo sapiens, UniProt Q8NER1)
T1 construct: expressed in transfected cells; host or cells: HEK293
Experiment: Human TRPV1 (hTRPV1) functional assay, FLIPR intracellular Ca2+, capsaicin challenge
Assay type: cell-based
Details: HEK293 cells expressing hTRPV1, capsaicin 0.030 μM challenge; for inhibition at 0.2 µM: test concentration of 0.2 μm, read-out: percent inhibition (symbol b); for IC50: derived from a variety of test concentrations, read-out: IC50 value (symbol c); for inhibition at 0.5 µM: test concentration of 0.5 μm, read-out: percent inhibition (symbol a)
Procedure, shortened: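 HEK293 cells expressing the channel, loaded with Calcium 3 dye, were exposed to compounds for 5 min before capsaicin 0.030 μM (~80% maximal). FLIPR Ca2+ read; IC50/EC50 from quadruplicate concentration-response, or percent inhibition at 0.5 μm or 0.2 μm.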

T1 sequence (Q8NER1 whole entry): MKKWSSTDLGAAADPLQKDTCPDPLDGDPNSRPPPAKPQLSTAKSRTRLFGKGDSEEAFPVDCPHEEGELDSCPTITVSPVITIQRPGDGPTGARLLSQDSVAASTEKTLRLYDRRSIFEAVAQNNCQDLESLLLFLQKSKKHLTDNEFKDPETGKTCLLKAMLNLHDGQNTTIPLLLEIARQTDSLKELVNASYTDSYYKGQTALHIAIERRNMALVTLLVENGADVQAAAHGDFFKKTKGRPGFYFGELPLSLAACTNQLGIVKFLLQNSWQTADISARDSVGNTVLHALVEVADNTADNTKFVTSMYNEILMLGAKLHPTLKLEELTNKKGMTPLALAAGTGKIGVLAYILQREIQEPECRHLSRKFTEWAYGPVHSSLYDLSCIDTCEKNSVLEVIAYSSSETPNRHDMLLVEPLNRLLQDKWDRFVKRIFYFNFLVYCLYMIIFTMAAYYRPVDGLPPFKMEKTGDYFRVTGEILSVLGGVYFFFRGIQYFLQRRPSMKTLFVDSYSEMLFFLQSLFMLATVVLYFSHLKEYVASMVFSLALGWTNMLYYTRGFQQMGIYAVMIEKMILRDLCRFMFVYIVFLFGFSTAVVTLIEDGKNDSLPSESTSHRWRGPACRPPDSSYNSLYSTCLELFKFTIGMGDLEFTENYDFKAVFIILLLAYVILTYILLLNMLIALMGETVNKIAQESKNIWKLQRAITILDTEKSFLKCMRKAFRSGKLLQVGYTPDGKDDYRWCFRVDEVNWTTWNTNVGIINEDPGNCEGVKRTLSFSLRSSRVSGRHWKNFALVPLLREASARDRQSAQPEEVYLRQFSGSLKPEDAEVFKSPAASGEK

Structure (SMILES) | inhibition at 0.2 µM [%] | IC50 [nM] | inhibition at 0.5 µM [%]
CS(=O)(=O)c1ccc(OCc2nc3cc(-c4ccccc4S(C)(=O)=O)ccc3[nH]2)cc1 [Cpd 85, 2-(4-methanesulfonyl-phenoxymethyl)-5-(2-methanesulfonyl-phenyl)-1H-benzoimidazole] | 12 |  | 
CS(=O)(=O)c1ccccc1-c1ccc2[nH]c(COc3ccc(C#N)cc3)nc2c1 [Cpd 83, 4-[5-(2-methanesulfonyl-phenyl)-1H-benzoimidazol-2-ylmethoxy]-benzonitrile] | 51 |  | 
Cc1ccc(OCc2nc3cc(-c4ccccc4S(C)(=O)=O)ccc3[nH]2)c(C)c1 [Cpd 89, 2-(2,4-dimethyl-phenoxymethyl)-5-(2-methanesulfonyl-phenyl)-1H-benzoimidazole] | 90 | 52 | 
NS(=O)(=O)c1ccccc1-c1ccc2[nH]c(COc3cccc(C(F)(F)F)c3)nc2c1 [Cpd 13, 2-[2-(3-trifluoromethyl-phenoxymethyl)-1H-benzoimidazol-5-yl]-benzenesulfonamide] |  | 61 | 
CN(C)S(=O)(=O)c1cccc(-c2ccc3[nH]c(COc4ccc(C(F)(F)F)cc4)nc3c2)c1 [Cpd 128, N,N-dimethyl-3-[2-(4-trifluoromethyl-phenoxymethyl)-1H-benzoimidazol-5-yl]-benzenesulfonamide] |  |  | 13
CN(Cc1ccc(C(F)(F)F)cc1)c1nc2cc(-c3ccccc3S(N)(=O)=O)ccc2[nH]1 [Cpd 137, 2-{2-[methyl-(4-trifluoromethyl-benzyl)-amino]-1H-benzoimidazol-5-yl}-benzenesulfonamide] |  |  | 37
CN(C)S(=O)(=O)c1ccc(-c2ccc3[nH]c(COc4ccc(C(F)(F)F)cc4)nc3c2)cc1 [Cpd 129, N,N-dimethyl-4-[2-(4-trifluoromethyl-phenoxymethyl)-1H-benzoimidazol-5-yl]-benzenesulfonamide] |  |  | 8
NS(=O)(=O)c1ccccc1-c1ccc2[nH]c(CS(=O)(=O)c3ccc(C(F)(F)F)cc3)nc2c1 [Cpd 44, 2-[2-(4-trifluoromethyl-benzenesulfonylmethyl)-1H-benzoimidazol-5-yl]-benzenesulfonamide] | 12 |  | 
O=C(CO)c1ccccc1-c1ccc2[nH]c(COc3ccc(C(F)(F)F)cc3)nc2c1 [Cpd 151, 2-hydroxy-1-{2-[2-(4-trifluoromethyl-phenoxymethyl)-1H-benzoimidazol-5-yl]-phenyl}-ethanone] | 33 |  | 
COC(=O)c1ccc(-c2ccc3[nH]c(COc4ccc(C(F)(F)F)cc4)nc3c2)cc1 [Cpd 131, 4-[2-(4-trifluoromethyl-phenoxymethyl)-1H-benzoimidazol-5-yl]-benzoic acid methyl ester] |  |  | 5
O=S(=O)(CCO)c1ccccc1-c1ccc2[nH]c(COc3ccc(S(=O)(=O)C(F)(F)F)cc3)nc2c1 [Cpd 161, 2-{2-[2-(4-trifluoromethanesulfonyl-phenoxymethyl)-1H-benzoimidazol-5-yl]-benzenesulfonyl}-ethanol] | 63 |  | 
Cc1cccc(-c2ccc3[nH]c(COc4ccc(C(F)(F)F)cc4)nc3c2)c1 [Cpd 108, 5-m-tolyl-2-(4-trifluoromethyl-phenoxymethyl)-1H-benzoimidazole] |  |  | 10
CS(=O)(=O)c1ccccc1-c1ccc2[nH]c(COc3cc(F)c(F)cc3F)nc2c1 [Cpd 69, 5-(2-methanesulfonyl-phenyl)-2-(2,4,5-trifluoro-phenoxymethyl)-1H-benzoimidazole] | 21 |  | 
CS(=O)(=O)c1ccccc1-c1ccc2[nH]c(COc3cccc(C(F)(F)F)c3F)nc2c1 [Cpd 71, 2-(2-fluoro-3-trifluoromethyl-phenoxymethyl)-5-(2-methanesulfonyl-phenyl)-1H-benzoimidazole] | 43 |  | 
NS(=O)(=O)c1ccccc1-c1ccc2[nH]c(COc3ccc(F)c(F)c3F)nc2c1 [Cpd 14, 2-[2-(2,3,4-trifluoro-phenoxymethyl)-1H-benzoimidazol-5-yl]-benzenesulfonamide] |  | 110 | 
NS(=O)(=O)c1ccccc1-c1ccc2[nH]c(COc3ccc(F)c(Cl)c3)nc2c1 [Cpd 11, 2-[2-(3-chloro-4-fluoro-phenoxymethyl)-1H-benzoimidazol-5-yl]-benzenesulfonamide] |  | 38 | 
NS(=O)(=O)c1ccccc1-c1ccc2[nH]c(COc3cccc(OC(F)(F)F)c3)nc2c1 [Cpd 15, 2-[2-(3-trifluoromethoxy-phenoxymethyl)-1H-benzoimidazol-5-yl]-benzenesulfonamide] |  | 25 | 
NS(=O)(=O)c1ccccc1-c1ccc2[nH]c(C(F)(F)Oc3ccc(C(F)(F)F)cc3)nc2c1 [Cpd 139, 2-{2-[difluoro-(4-trifluoromethyl-phenoxy)-methyl]-1H-benzoimidazol-5-yl}-benzenesulfonamide] |  | 21 | 99

Structure (SMILES) | inhibition at 0.2 µM [%] | IC50 [nM] | inhibition at 0.5 µM [%]
CC(C)(O)c1ccccc1-c1ccc2[nH]c(COc3ccccc3)nc2c1 [Cpd 50, 2-[2-(2-phenoxymethyl-1H-benzoimidazol-5-yl)-phenyl]-propan-2-ol] | 81 | 91 | 
CNS(=O)(=O)c1ccccc1-c1ccc2[nH]c(COc3ccc(C(C)C)cc3)nc2c1 [Cpd 51, 2-[2-(4-isopropyl-phenoxymethyl)-1H-benzoimidazol-5-yl]-N-methyl-benzenesulfonamide] | 100 | 7.8 | 
CC(=O)c1ccc(OCc2nc3cc(-c4ccccc4S(N)(=O)=O)ccc3[nH]2)cc1 [Cpd 35, 2-[2-(4-acetyl-phenoxymethyl)-1H-benzoimidazol-5-yl]-benzenesulfonamide] |  | 16 | 97
Cn1c(COc2ccc(C(F)(F)F)cc2)nc2cc(-c3ccccc3S(N)(=O)=O)ccc21 [Cpd 40, 2-[1-methyl-2-(4-trifluoromethyl-phenoxymethyl)-1H-benzoimidazol-5-yl]-benzenesulfonamide] |  | 8.6 | 100
NS(=O)(=O)c1ccccc1-c1ccc2[nH]c(COc3ccc(F)c(C(F)(F)F)c3)nc2c1 [Cpd 12, 2-[2-(4-fluoro-3-trifluoromethyl-phenoxymethyl)-1H-benzoimidazol-5-yl]-benzenesulfonamide] |  | 18 | 
NS(=O)(=O)c1c(F)cc(F)cc1-c1ccc2[nH]c(COc3ccc(C(F)(F)F)cc3)nc2c1 [Cpd 135, 2,4-difluoro-6-[2-(4-trifluoromethyl-phenoxymethyl)-1H-benzoimidazol-5-yl]-benzenesulfonamide] |  | 47 | 100
NS(=O)(=O)c1ccccc1-c1ccc2[nH]c(CSc3ccc(Cl)cc3)nc2c1 [Cpd 42, 2-[2-(4-chloro-phenylsulfanylmethyl)-1H-benzoimidazol-5-yl]-benzenesulfonamide] | 93 | 75 | 
CON(C)C(=O)C(O)c1ccccc1-c1ccc2[nH]c(COc3ccc(C(F)(F)F)cc3)nc2c1 (stereo not drawn) [Cpd 149, 2-hydroxy-N-methoxy-N-methyl-2-{2-[2-(4-trifluoromethyl-phenoxymethyl)-1H-benzoimidazol-5-yl]-phenyl}-acetamide] | 89 | 46 | 
CS(=O)(=O)c1ccccc1-c1ccc2[nH]c(COc3ccc(Cl)c(Cl)c3)nc2c1 [Cpd 65, 2-(3,4-dichloro-phenoxymethyl)-5-(2-methanesulfonyl-phenyl)-1H-benzoimidazole] | 91 | 58 | 
NS(=O)(=O)c1ccccc1-c1ccc2[nH]c(CS(=O)(=O)c3ccc(OC(F)(F)F)cc3)nc2c1 [Cpd 46, 2-[2-(4-trifluoromethoxy-benzenesulfonylmethyl)-1H-benzoimidazol-5-yl]-benzenesulfonamide] | 5 |  | 
CC(C)(O)c1ccccc1-c1ccc2[nH]c(COc3ccc(Cl)cc3)nc2c1 [Cpd 23, 2-{2-[2-(4-chloro-phenoxymethyl)-1H-benzoimidazol-5-yl]-phenyl}-propan-2-ol] |  | 19 | 100
CC(C)(C)c1ccc(OCc2nc3cc(-c4ccccc4S(N)(=O)=O)ccc3[nH]2)cc1 [Cpd 32, 2-[2-(4-tert-butyl-phenoxymethyl)-1H-benzoimidazol-5-yl]-benzenesulfonamide] | 100 | 6 | 
NS(=O)(=O)c1ccccc1-c1ccc2[nH]c(CSc3ccc(C(F)(F)F)cc3)nc2c1 [Cpd 41, 2-[2-(4-trifluoromethyl-phenylsulfanylmethyl)-1H-benzoimidazol-5-yl]-benzenesulfonamide] | 98 | 4.9 | 
NS(=O)(=O)c1ccccc1-c1ccc2[nH]c(COc3ccccc3)nc2c1 [Cpd 26, 2-(2-phenoxymethyl-1H-benzoimidazol-5-yl)-benzenesulfonamide] |  | 177 | 87
CNS(=O)(=O)c1ccccc1-c1ccc2[nH]c(COc3cccc(C(F)(F)F)c3)nc2c1 [Cpd 52, N-methyl-2-[2-(3-trifluoromethyl-phenoxymethyl)-1H-benzoimidazol-5-yl]-benzenesulfonamide] | 99 | 35 | 
NS(=O)(=O)c1ccccc1-c1ccc2[nH]c(CS(=O)(=O)c3ccc(Cl)cc3)nc2c1 [Cpd 45, 2-[2-(4-chloro-benzenesulfonylmethyl)-1H-benzoimidazol-5-yl]-benzenesulfonamide] | 2 |  | 
NS(=O)(=O)c1ccccc1-c1ccc2[nH]c(COc3ccc(F)cc3F)nc2c1 [Cpd 9, 2-[2-(2,4-difluoro-phenoxymethyl)-1H-benzoimidazol-5-yl]-benzenesulfonamide] |  | 110 | 
NS(=O)(=O)c1ccccc1-c1ccc2[nH]c(OCc3ccc(C(F)(F)F)cc3)nc2c1 [Cpd 138, 2-[2-(4-trifluoromethyl-benzyloxy)-1H-benzoimidazol-5-yl]-benzenesulfonamide] |  |  | 18

Source: patent US7612211B2, “Benzimidazole TRPV1 inhibitors” (Janssen Pharmaceutica N.V., priority 2006, dated 2009)
